Patent publication US9302999B2, “Substituted triazoles as herbicides” (E. I. DU PONT DE NEMOURS AND COMPANY, priority 2012, dated 2016)

Tests used:
Assay type in all cases: in vivo
[1] = tested on: foxtail, giant (giant foxtail, Setaria faberii); assay: Test A pre-/postemergence: foxtail, giant
Outline: (§1)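 Soil medium was loam blended with sand; treatments pre- and postemergence were applied concurrently, postemergence at one- to two-leaf stage. Approximately ten days in greenhouse preceded visual comparison with untreated controls, scored 0 (no effect) to 100 (complete control).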

corn (Zea mays) = assay: Test A pre-/postemergence: corn
Outline: as §1

[2] = tested on: barnyardgrass (Echinochloa crus-galli); assay: Test C flooded paddy test: barnyardgrass; details: scale 0 to 100 (0 no effect, 100 complete control)
Outline: (§2)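 Plants at 2-leaf stage in pots flooded 3 cm above soil; compounds applied directly into the paddy water, depth maintained. Visual rating against controls after 13–15 days in greenhouse, scale 0 (no effect) to 100 (complete control).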

[3] = tested on: barnyardgrass (Echinochloa crus-galli); assay: Test A pre-/postemergence: barnyardgrass
Outline: as §1

[4] = tested on: morningglory (Ipomoea spp.); assay: Test A pre-/postemergence: morningglory
Outline: as §1

[5] = tested on: wheat (Triticum aestivum); assay: Test A pre-/postemergence: wheat
Outline: as §1

[6] = tested on: sedge, umbrella (small-flower umbrella sedge, Cyperus difformis); assay: Test C flooded paddy test: sedge, umbrella; details: scale 0 to 100 (0 no effect, 100 complete control)
Outline: as §2

[7] = tested on: velvetleaf (Abutilon theophrasti); assay: Test A pre-/postemergence: velvetleaf
Outline: as §1

rice (Oryza sativa) = assay: Test C flooded paddy test: rice; details: scale 0 to 100 (0 no effect, 100 complete control)
Outline: as §2

[8] = tested on: crabgrass, large (large crabgrass, Digitaria sanguinalis); assay: Test A pre-/postemergence: crabgrass, large
Outline: as §1

[9] = tested on: ducksalad (Heteranthera limosa); assay: Test C flooded paddy test: ducksalad; details: scale 0 to 100 (0 no effect, 100 complete control)
Outline: as §2

[10] = tested on: pigweed (Amaranthus retroflexus); assay: Test A pre-/postemergence: pigweed
Outline: as §1

[11] = Postemergence, 1000 g ai/ha, visual rating on 0 to 100 scale (0 no effect, 100 complete control), approximately ten days
[12] = Preemergence, 1000 g ai/ha, 0 to 100 scale, 0 is no effect, 100 is complete control
[13] = Flood (flooded paddy test), 250 g ai/ha, visual rating after 13 to 15 days
[14] = Postemergence, 125 g ai/ha, 0 to 100 scale, 0 is no effect, 100 is complete control
[15] = Postemergence, 500 g ai/ha, visual rating on 0 to 100 scale (0 no effect, 100 complete control), approximately ten days
[16] = Preemergence, 125 g ai/ha, 0 to 100 scale (0 no effect, 100 complete control)
[17] = Preemergence, 500 g ai/ha, 0 to 100 scale, 0 is no effect, 100 is complete control
[18] = Flood (flooded paddy test), 62 g ai/ha, visual rating after 13 to 15 days
[19] = Flood (flooded paddy test), 125 g ai/ha, visual rating after 13 to 15 days

CCc1nn(-c2ccc(C(F)(F)F)cc2)nc1Cn1cnc(C(F)(F)F)n1 [Compound 130]
Foxtail, Giant plant response rating [1, 11]: 80
Foxtail, Giant plant response rating [1, 12]: 90
Corn plant response rating (corn (Zea mays); [11]): 30
Corn plant response rating (corn (Zea mays); [12]): 0
Plant response rating, Barnyardgrass [2, 13]: 15
Plant response rating, Barnyardgrass ([2]; Flood, 62 g ai/ha): 0
Barnyardgrass plant response rating [3, 11]: 50
Barnyardgrass plant response rating [3, 12]: 50
Morningglory plant response rating [4, 11]: 100
Morningglory plant response rating [4, 12]: 40
Wheat plant response rating [5, 11]: 30
Wheat plant response rating [5, 12]: 10
Plant response rating, Sedge, Umbrella [6, 13]: 75
Plant response rating, Sedge, Umbrella ([6]; Flood, 62 g ai/ha): 30
Velvetleaf plant response rating [7, 11]: 100
Velvetleaf plant response rating [7, 12]: 20
Plant response rating, Rice (rice (Oryza sativa); [13]): 15
Plant response rating, Rice (rice (Oryza sativa); Flood, 62 g ai/ha): 0
Crabgrass, Large plant response rating [8, 11]: 90
Crabgrass, Large plant response rating [8, 12]: 90
Plant response rating, Ducksalad [9, 13]: 20
Plant response rating, Ducksalad ([9]; Flood, 62 g ai/ha): 0
Pigweed plant response rating [10, 11]: 100
Pigweed plant response rating [10, 12]: 90

Cc1nn(-c2ccc(C(F)(F)F)cc2)nc1Cn1cnc(C(F)(F)F)c1Cl [Compound 13]
Foxtail, Giant plant response rating [1, 14]: 0
Foxtail, Giant plant response rating [1, 15]: 10
Plant response rating, Foxtail, Giant [1, 16]: 0
Plant response rating, Foxtail, Giant [1, 17]: 0
Corn plant response rating (corn (Zea mays); [14]): 0
Corn plant response rating (corn (Zea mays); [15]): 0
Plant response rating, Corn (corn (Zea mays); [16]): 0
Plant response rating, Corn (corn (Zea mays); [17]): 0
Plant response rating, Barnyardgrass [2, 18]: 0
Plant response rating, Barnyardgrass [2, 13]: 0
Barnyardgrass plant response rating [3, 14]: 0
Barnyardgrass plant response rating [3, 15]: 0
Plant response rating, Barnyardgrass [3, 16]: 0
Plant response rating, Barnyardgrass [3, 17]: 0
Morningglory plant response rating [4, 14]: 10
Morningglory plant response rating [4, 15]: 10
Plant response rating, Morningglory [4, 16]: 0
Plant response rating, Morningglory [4, 17]: 0
Wheat plant response rating [5, 14]: 0
Wheat plant response rating [5, 15]: 0
Plant response rating, Wheat [5, 16]: 0
Plant response rating, Wheat [5, 17]: 0
Plant response rating, Sedge, Umbrella [6, 18]: 0
Plant response rating, Sedge, Umbrella [6, 13]: 0
Velvetleaf plant response rating [7, 14]: 0
Velvetleaf plant response rating [7, 15]: 0
Plant response rating, Velvetleaf [7, 16]: 0
Plant response rating, Velvetleaf [7, 17]: 0
Plant response rating, Rice (rice (Oryza sativa); [18]): 0
Plant response rating, Rice (rice (Oryza sativa); [13]): 0
Crabgrass, Large plant response rating [8, 14]: 0
Crabgrass, Large plant response rating [8, 15]: 0
Plant response rating, Crabgrass, Large [8, 16]: 0
Plant response rating, Crabgrass, Large [8, 17]: 0
Plant response rating, Ducksalad [9, 18]: 0
Plant response rating, Ducksalad [9, 13]: 0
Pigweed plant response rating [10, 14]: 0
Pigweed plant response rating [10, 15]: 0
Plant response rating, Pigweed [10, 16]: 0
Plant response rating, Pigweed [10, 17]: 0

Cc1nn(-c2ccc(C(F)F)cn2)nc1C(=O)c1cccc(C(F)(F)F)c1 [Compound 68]
Foxtail, Giant plant response rating [1, 14]: 10
Foxtail, Giant plant response rating [1, 15]: 10
Plant response rating, Foxtail, Giant [1, 16]: 0
Plant response rating, Foxtail, Giant [1, 17]: 0
Corn plant response rating (corn (Zea mays); [14]): 0
Corn plant response rating (corn (Zea mays); [15]): 10
Plant response rating, Corn (corn (Zea mays); [16]): 0
Plant response rating, Corn (corn (Zea mays); [17]): 0
Plant response rating, Barnyardgrass [2, 18]: 0
Plant response rating, Barnyardgrass [2, 19]: 0
Plant response rating, Barnyardgrass [2, 13]: 0
Plant response rating, Barnyardgrass ([2]; Flood, 31 g ai/ha): 0
Barnyardgrass plant response rating [3, 14]: 0
Barnyardgrass plant response rating [3, 15]: 10
Plant response rating, Barnyardgrass [3, 16]: 0
Plant response rating, Barnyardgrass [3, 17]: 0
Morningglory plant response rating [4, 14]: 0
Morningglory plant response rating [4, 15]: 10
Plant response rating, Morningglory [4, 16]: 0
Plant response rating, Morningglory [4, 17]: 0
Wheat plant response rating [5, 14]: 0
Wheat plant response rating [5, 15]: 10
Plant response rating, Wheat [5, 16]: 0
Plant response rating, Wheat [5, 17]: 0
Plant response rating, Sedge, Umbrella [6, 18]: 0
Plant response rating, Sedge, Umbrella [6, 19]: 0
Plant response rating, Sedge, Umbrella [6, 13]: 0
Plant response rating, Sedge, Umbrella ([6]; Flood, 31 g ai/ha): 0
Velvetleaf plant response rating [7, 15]: 0
Plant response rating, Velvetleaf [7, 16]: 0
Plant response rating, Velvetleaf [7, 17]: 0
Plant response rating, Rice (rice (Oryza sativa); [18]): 0
Plant response rating, Rice (rice (Oryza sativa); [19]): 0
Plant response rating, Rice (rice (Oryza sativa); [13]): 0
Plant response rating, Rice (rice (Oryza sativa); Flood, 31 g ai/ha): 0
Crabgrass, Large plant response rating [8, 14]: 10
Crabgrass, Large plant response rating [8, 15]: 10
Plant response rating, Crabgrass, Large [8, 16]: 0
Plant response rating, Crabgrass, Large [8, 17]: 0
Plant response rating, Ducksalad [9, 18]: 0
Plant response rating, Ducksalad [9, 19]: 0
Plant response rating, Ducksalad [9, 13]: 0
Plant response rating, Ducksalad ([9]; Flood, 31 g ai/ha): 0
Pigweed plant response rating [10, 14]: 10
Pigweed plant response rating [10, 15]: 50
Plant response rating, Pigweed [10, 16]: 0
Plant response rating, Pigweed [10, 17]: 0

CCc1nn(-c2ccc(C(F)(F)F)cc2)nc1Cn1cnc(C(F)(F)F)c1 [Compound 133]
Foxtail, Giant plant response rating [1, 11]: 70
Plant response rating, Foxtail, Giant [1, 12]: 90
Corn plant response rating (corn (Zea mays); [11]): 20
Plant response rating, Corn (corn (Zea mays); [12]): 10
Plant response rating, Barnyardgrass [2, 13]: 15
Plant response rating, Barnyardgrass ([2]; Flood, 62 g ai/ha): 0
Barnyardgrass plant response rating [3, 11]: 40
Plant response rating, Barnyardgrass [3, 12]: 40
Morningglory plant response rating [4, 11]: 90
Plant response rating, Morningglory [4, 12]: 40
Wheat plant response rating [5, 11]: 30
Plant response rating, Wheat [5, 12]: 0
Plant response rating, Sedge, Umbrella [6, 13]: 50
Plant response rating, Sedge, Umbrella ([6]; Flood, 62 g ai/ha): 0
Velvetleaf plant response rating [7, 11]: 90
Plant response rating, Velvetleaf [7, 12]: 40
Plant response rating, Rice (rice (Oryza sativa); [13]): 0
Plant response rating, Rice (rice (Oryza sativa); Flood, 62 g ai/ha): 0
Crabgrass, Large plant response rating [8, 11]: 80
Plant response rating, Crabgrass, Large [8, 12]: 90
Plant response rating, Ducksalad [9, 13]: 20
Plant response rating, Ducksalad ([9]; Flood, 62 g ai/ha): 0
Pigweed plant response rating [10, 11]: 100
Plant response rating, Pigweed [10, 12]: 90

Cc1nn(-c2ccccn2)nc1C(=O)c1cccc(C(F)(F)F)c1 [Compound 60]
Foxtail, Giant plant response rating [1, 14]: 0
Foxtail, Giant plant response rating [1, 15]: 0
Plant response rating, Foxtail, Giant [1, 16]: 0
Plant response rating, Foxtail, Giant [1, 17]: 0
Corn plant response rating (corn (Zea mays); [14]): 0
Corn plant response rating (corn (Zea mays); [15]): 10
Plant response rating, Corn (corn (Zea mays); [16]): 0
Plant response rating, Corn (corn (Zea mays); [17]): 0
Plant response rating, Barnyardgrass [2, 18]: 0
Plant response rating, Barnyardgrass [2, 19]: 0
Plant response rating, Barnyardgrass [2, 13]: 0
Plant response rating, Barnyardgrass ([2]; Flood, 31 g ai/ha): 0
Barnyardgrass plant response rating [3, 14]: 0
Barnyardgrass plant response rating [3, 15]: 10
Plant response rating, Barnyardgrass [3, 16]: 0
Plant response rating, Barnyardgrass [3, 17]: 0
Morningglory plant response rating [4, 14]: 0
Morningglory plant response rating [4, 15]: 0
Plant response rating, Morningglory [4, 16]: 0
Plant response rating, Morningglory [4, 17]: 0
Wheat plant response rating [5, 14]: 0
Wheat plant response rating [5, 15]: 0
Plant response rating, Wheat [5, 16]: 0
Plant response rating, Wheat [5, 17]: 0
Plant response rating, Sedge, Umbrella [6, 18]: 0
Plant response rating, Sedge, Umbrella [6, 19]: 0
Plant response rating, Sedge, Umbrella [6, 13]: 0
Plant response rating, Sedge, Umbrella ([6]; Flood, 31 g ai/ha): 0
Velvetleaf plant response rating [7, 14]: 0
Velvetleaf plant response rating [7, 15]: 0
Plant response rating, Velvetleaf [7, 16]: 0
Plant response rating, Velvetleaf [7, 17]: 0
Plant response rating, Rice (rice (Oryza sativa); [18]): 0
Plant response rating, Rice (rice (Oryza sativa); [19]): 0
Plant response rating, Rice (rice (Oryza sativa); [13]): 0
Plant response rating, Rice (rice (Oryza sativa); Flood, 31 g ai/ha): 0
Crabgrass, Large plant response rating [8, 14]: 0
Crabgrass, Large plant response rating [8, 15]: 10
Plant response rating, Crabgrass, Large [8, 16]: 0
Plant response rating, Crabgrass, Large [8, 17]: 0
Plant response rating, Ducksalad [9, 18]: 0
Plant response rating, Ducksalad [9, 19]: 0
Plant response rating, Ducksalad [9, 13]: 0
Plant response rating, Ducksalad ([9]; Flood, 31 g ai/ha): 0
Pigweed plant response rating [10, 14]: 0
Pigweed plant response rating [10, 15]: 10
Plant response rating, Pigweed [10, 16]: 0
Plant response rating, Pigweed [10, 17]: 0
